The text below walks through data of ChEMBL document CHEMBL4616703, “Benzoxazepine-Derived Selective, Orally Bioavailable Inhibitor of Human Acidic Mammalian Chitinase” (ACS Med Chem Lett, 2020).

Some results are limits rather than exact numbers.

Data set [1] addresses Acidic mammalian chitinase (Homo sapiens, UniProt Q9BZP6). The experiment in a line: Inhibition of full length recombinant C-terminal His-tagged human acidic mammalian chitinase expressed in CHOK1 cells assessed as reduction in chitinolytic activity using 4-methylumbelliferyl-beta-D-N,N-diacetylchitobioside hydrate as substrate incubated for 60 mins under shaking condition by microplate fluorometry analysis. The arrangement: species or system CHO-K1.

Data set [2] addresses T1, Voltage-gated inwardly rectifying potassium channel KCNH2 (Homo sapiens, UniProt Q12809). The experiment in a line: Displacement of Tracer Red from human ERG by fluorescence polarization assay. For orientation: Polarisation of emitted light reports the rotation of a fluorescent probe.
In the next data set the target is Chitotriosidase-1 (Homo sapiens, UniProt Q13231). The experiment in a line: Inhibition of full length recombinant C-terminal His-taged human CHIT1 expressed in CHOK1 cells assessed as reduction in chitinolytic activity using 4-methylumbelliferyl-beta-D-N,N',N''-[…] as substrate incubated for 60 mins under shaking condition by microplate fluorometry analysis. The arrangement: species or system CHO-K1.

Data set [3] in a line: AUC (0 to infinity) in Sprague-Dawley rat at 10 mg/kg, po administered as single dose measured after 24 hrs by LC-MS/MS analysis. Format: ADME, organism-based. More on the design: dose 10 mg/kg, time infinity, route oral. To be noted: in vivo.
The nature of data set [4]: Cmax in Sprague-Dawley rat at 10 mg/kg, po administered as single dose measured after 24 hrs by LC-MS/MS analysis. Particulars: in vivo. The data set is classed as ADME, organism-based. More on the design: dose 10 mg/kg, route oral.
The nature of data set [5]: Cmax in BALB/c mouse at 10 mg/kg, po administered as single dose measured after 24 hrs by LC-MS/MS analysis. The data set is classed as ADME, organism-based. More on the design: dose 10 mg/kg, route oral. Particulars: in vivo.
The target of data set [6] is T1, Voltage-gated inwardly rectifying potassium channel KCNH2. The experiment in a line: Inhibition of human ERG expressed in CHO-K1 cells by automated Qpatch-clamp assay. The data set is classed as cell-based. Background: In patch-clamp work, channel activity is measured electrically.
Data set [7] can be described thus: Mean residence time in BALB/c mouse at 10 mg/kg, po administered as single dose measured after 24 hrs by LC-MS/MS analysis. Format: ADME, organism-based. To be noted: in vivo.
A short description of data set [8]: Tmax in BALB/c mouse at 10 mg/kg, po administered as single dose measured after 24 hrs by LC-MS/MS analysis. The data set is classed as ADME, organism-based. To be noted: in vivo.
The nature of data set [9]: Volume of distribution at steady state in BALB/c mouse at 3 mg/kg, iv administered as single bolus dose measured after 24 hrs by LC-MS/MS analysis. Format: ADME, organism-based. Particulars: in vivo, read-out: Vdss.
Data set [10] in a line: Half life in BALB/c mouse at 10 mg/kg, po administered as single dose measured after 24 hrs by LC-MS/MS analysis. The data set is classed as ADME, organism-based. To be noted: in vivo.
The nature of data set [11]: Clearance in BALB/c mouse at 3 mg/kg, iv administered as single bolus dose measured after 24 hrs by LC-MS/MS analysis. The data set is classed as ADME, organism-based. Particulars: in vivo.
The nature of data set [12]: Mean residence time in BALB/c mouse at 3 mg/kg, iv administered as single bolus dose measured after 24 hrs by LC-MS/MS analysis. To be noted: in vivo. The data set is classed as ADME, organism-based.
Data set [13] is described as follows: Mean residence time in Sprague-Dawley rat at 10 mg/kg, po administered as single dose measured after 24 hrs by LC-MS/MS analysis. The data set is classed as ADME, organism-based. To be noted: in vivo.
The nature of data set [14]: AUC (0 to infinity) in BALB/c mouse at 10 mg/kg, po administered as single dose measured after 24 hrs by LC-MS/MS analysis. Format: ADME, organism-based. More on the design: dose 10 mg/kg, route oral, time infinity. To be noted: in vivo.
Data set [15] is described as follows: AUC (0 to infinity) in BALB/c mouse at 3 mg/kg, iv administered as single dose measured after 24 hrs by LC-MS/MS analysis. Format: ADME, organism-based. More on the design: dose 3 mg/kg, route intravenous, time infinity. Particulars: in vivo.
Data set [16] can be described thus: Tmax in Sprague-Dawley rat at 10 mg/kg, po administered as single dose measured after 24 hrs by LC-MS/MS analysis. The data set is classed as ADME, organism-based. To be noted: in vivo.
Data set [17] in a line: Oral bioavailability in BALB/c mouse at 10 mg/kg administered as single dose measured after 24 hrs by LC-MS/MS analysis. The data set is classed as ADME, organism-based. To be noted: in vivo.
A short description of data set [18]: Cmax in BALB/c mouse at 3 mg/kg, iv administered as single bolus dose measured after 24 hrs by LC-MS/MS analysis. The data set is classed as ADME, organism-based. The arrangement: dose 3 mg/kg, route intravenous. Particulars: in vivo.
Data set [19] in a line: AUC(0 to infinity) in Sprague-Dawley rat at 10 mg/kg, po administered as single dose measured after 24 hrs by LC-MS/MS analysis. The data set is classed as ADME, organism-based. More on the design: dose 10 mg/kg, route oral, time infinity. To be noted: in vivo.
A short description of data set [20]: Half life in BALB/c mouse at 3 mg/kg, iv administered as single bolus dose measured after 24 hrs by LC-MS/MS analysis. Format: ADME, organism-based. Particulars: in vivo.
Data set [21] can be described thus: Half life in Sprague-Dawley rat at 10 mg/kg, po administered as single dose measured after 24 hrs by LC-MS/MS analysis. The data set is classed as ADME, organism-based. Particulars: in vivo.

Sequence of Acidic mammalian chitinase (Q9BZP6 whole entry): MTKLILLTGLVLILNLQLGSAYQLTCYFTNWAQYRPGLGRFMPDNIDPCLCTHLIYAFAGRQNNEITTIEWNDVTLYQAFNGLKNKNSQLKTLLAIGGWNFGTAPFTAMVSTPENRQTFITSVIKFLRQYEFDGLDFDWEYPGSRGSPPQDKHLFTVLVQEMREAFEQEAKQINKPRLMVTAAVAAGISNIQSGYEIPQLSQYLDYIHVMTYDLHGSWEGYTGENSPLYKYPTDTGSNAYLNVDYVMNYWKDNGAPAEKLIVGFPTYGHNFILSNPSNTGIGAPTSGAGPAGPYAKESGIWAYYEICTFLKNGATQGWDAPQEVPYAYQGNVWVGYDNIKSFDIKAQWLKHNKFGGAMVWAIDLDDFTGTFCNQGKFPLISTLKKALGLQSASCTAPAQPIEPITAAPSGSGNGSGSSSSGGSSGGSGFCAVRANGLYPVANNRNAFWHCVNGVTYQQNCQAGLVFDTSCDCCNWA
Sequence of Chitotriosidase-1 (Q13231 whole entry): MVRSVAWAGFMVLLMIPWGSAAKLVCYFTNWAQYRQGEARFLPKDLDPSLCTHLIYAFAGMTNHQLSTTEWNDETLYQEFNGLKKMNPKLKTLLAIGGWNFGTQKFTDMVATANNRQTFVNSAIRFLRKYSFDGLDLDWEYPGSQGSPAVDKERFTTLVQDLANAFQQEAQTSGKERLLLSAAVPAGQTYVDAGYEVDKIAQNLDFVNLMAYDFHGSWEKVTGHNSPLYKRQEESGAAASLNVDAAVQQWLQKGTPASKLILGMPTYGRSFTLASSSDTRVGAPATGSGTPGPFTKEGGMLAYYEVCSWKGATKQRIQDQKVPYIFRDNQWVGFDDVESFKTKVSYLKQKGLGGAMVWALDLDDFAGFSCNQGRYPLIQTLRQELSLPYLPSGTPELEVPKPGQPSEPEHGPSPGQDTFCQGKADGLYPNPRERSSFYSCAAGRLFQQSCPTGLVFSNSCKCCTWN
T1 sequence (Q12809 whole entry): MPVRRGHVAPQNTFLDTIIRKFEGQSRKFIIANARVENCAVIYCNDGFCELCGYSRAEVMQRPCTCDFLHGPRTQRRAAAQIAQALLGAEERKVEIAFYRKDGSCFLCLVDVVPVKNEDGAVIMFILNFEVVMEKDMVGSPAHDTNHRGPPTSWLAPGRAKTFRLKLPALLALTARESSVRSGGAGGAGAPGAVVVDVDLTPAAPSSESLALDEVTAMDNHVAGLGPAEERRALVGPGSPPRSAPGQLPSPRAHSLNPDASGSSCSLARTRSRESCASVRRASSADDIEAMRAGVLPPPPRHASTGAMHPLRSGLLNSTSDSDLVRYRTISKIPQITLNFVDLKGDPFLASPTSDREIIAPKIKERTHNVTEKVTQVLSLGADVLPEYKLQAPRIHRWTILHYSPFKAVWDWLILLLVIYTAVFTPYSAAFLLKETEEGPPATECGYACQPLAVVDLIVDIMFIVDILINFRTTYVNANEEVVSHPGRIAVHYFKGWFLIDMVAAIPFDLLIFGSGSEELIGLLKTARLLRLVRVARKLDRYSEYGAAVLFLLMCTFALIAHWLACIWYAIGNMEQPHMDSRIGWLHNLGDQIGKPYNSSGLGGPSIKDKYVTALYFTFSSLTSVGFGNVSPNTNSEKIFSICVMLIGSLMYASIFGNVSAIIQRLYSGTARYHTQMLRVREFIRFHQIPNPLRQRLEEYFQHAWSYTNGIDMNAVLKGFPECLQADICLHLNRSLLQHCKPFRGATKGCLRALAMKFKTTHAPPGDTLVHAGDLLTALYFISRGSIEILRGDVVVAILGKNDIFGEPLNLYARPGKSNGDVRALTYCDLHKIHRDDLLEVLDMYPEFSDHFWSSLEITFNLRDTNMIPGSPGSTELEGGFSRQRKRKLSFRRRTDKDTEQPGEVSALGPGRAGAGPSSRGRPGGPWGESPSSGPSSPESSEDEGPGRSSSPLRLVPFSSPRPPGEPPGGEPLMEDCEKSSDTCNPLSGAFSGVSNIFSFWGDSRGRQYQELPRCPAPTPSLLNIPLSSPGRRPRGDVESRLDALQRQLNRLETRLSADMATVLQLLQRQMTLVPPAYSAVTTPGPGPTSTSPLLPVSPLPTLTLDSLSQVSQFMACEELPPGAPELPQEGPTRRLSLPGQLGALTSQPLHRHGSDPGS

Regarding `Nc1nc(N2CCC(N3Cc4cccnc4OC[C@@H]3Cc3ccc(Cl)cc3)CC2)n[nH]1`, the half-inhibitory concentration (IC50) is 30 nM in data set [1], above 50000 nM in [2] and 2400 nM at Chitotriosidase-1.
`Nc1nc(N2CCC(N(CCc3ccc(Cl)cc3)Cc3ccncc3Cl)CC2)n[nH]1`: the concentration for half-maximal inhibition (IC50) amounted to 15 nM in data set [1], 6400 nM in data set [2] and 620 nM at Chitotriosidase-1. Also, the AUC(0-inf) in [3] was 430 ng·h/mL. In addition, in data set [4], the Cmax was found to be 130 ng/mL.
For `Nc1n[nH]c(N2CCC(N(CCc3ccc(Cl)cc3)Cc3ccccc3)CC2)n1`, at Chitotriosidase-1, the half-maximal inhibitory concentration (IC50) turned out to be 122 nM.
In the case of `C=C1COC[C@H](Cc2ccc(Cl)cc2)N(C2CCN(c3nnc(N)[nH]3)CC2)C1`, the IC50 in data set [1] stood at 12 nM; at Chitotriosidase-1, 350 nM.
Turning to `Nc1nnc(N2CCC(N3Cc4cc(Cl)ccc4OC[C@@H]3Cc3ccc(Cl)cc3)CC2)[nH]1`, the values for the IC50 (in data set [1]; in data set [2]; on Chitotriosidase-1) were 8 nM, 6700 nM and 2300 nM, respectively.
Turning to `Nc1nc(N2CCC(N(CCc3ccc(Cl)cc3)Cc3cccc(O)c3)CC2)n[nH]1`, the IC50 was 2 nM in data set [1], 150 nM in data set [2] and 79 nM at Chitotriosidase-1.
For `Nc1nc(N2CCC(N(CCc3ccc(Cl)cc3)Cc3cccc(C(F)(F)F)c3)CC2)n[nH]1`, the half-maximal inhibitory concentration (IC50) in data set [1] was 12 nM; in data set [2], 2700 nM; on Chitotriosidase-1 it was 310 nM. For the same molecule, in data set [3], the AUC(0-inf) came to 13700 ng·h/mL. The molecule further showed a Cmax in data set [4] of 1600 ng/mL.
As for `CN1C[C@H](Cc2ccc(Cl)cc2)N(C2CCN(c3nnc(N)[nH]3)CC2)Cc2ccccc21`, the IC50 in [1] was 1.4 nM; in data set [2], 3200 nM; at Chitotriosidase-1 it was 275 nM.
On to `Nc1nc(N2CCC(N(CCc3ccc(Cl)cc3)Cc3ccc(F)cc3Cl)CC2)n[nH]1`, for which the figures for the concentration for half-maximal inhibition (IC50) (in data set [1]; at Chitotriosidase-1) were 5 nM and 200 nM, respectively. Also, the area under the curve AUC(0-inf) in [3] stood at 7500 ng·h/mL. In addition, the Cmax in data set [4] came out at 690 ng/mL.
As to `Nc1nc(N2CCC(N3Cc4cnccc4OC[C@@H]3Cc3ccc(Cl)cc3)CC2)n[nH]1`, the 50% inhibitory concentration (IC50) in data set [1] was found to be 290 nM; in data set [2], 17000 nM; on Chitotriosidase-1, 18000 nM.
On to `Nc1n[nH]c(N2CCC(N(CCc3ccc(Cl)cc3)Cc3ccccc3Cl)CC2)n1`, for which the area under the curve AUC(0-inf) in data set [3] worked out at 1400 ng·h/mL. Further, the values for the IC50 (in [2]; on Chitotriosidase-1) were 2000 nM and 104 nM, respectively.
Turning to `Nc1nc(N2CCC(N(CCc3ccc(Cl)cc3)Cc3cc(F)ccc3F)CC2)n[nH]1`, the values for the IC50 (in data set [1]; on Chitotriosidase-1) were 5 nM and 277 nM, respectively. Further, in data set [3], the AUC(0-inf) was determined as 2400 ng·h/mL. In addition, the highest level in data set [4] (Cmax) was 600 ng/mL.
For `CN1C[C@H](Cc2ccc(Cl)cc2)N(C2CCN(c3nnc(N)[nH]3)CC2)Cc2cc(Cl)ccc21`, the IC50 in data set [1] was 0.7 nM; in data set [2], 800 nM; at Chitotriosidase-1, 420 nM.
Consider `N#Cc1ccc2c(c1)CN(C1CCN(c3n[nH]c(N)n3)CC1)[C@@H](Cc1ccc(Cl)cc1)CO2`, for which the IC50 in data set [1] amounted to 49 nM; in data set [2] it was 23000 nM; at Chitotriosidase-1, 7300 nM.
In the case of `Nc1nnc(N2CCC(N3Cc4cc(Cl)cc(Cl)c4OC[C@@H]3Cc3ccc(Cl)cc3)CC2)[nH]1`, the half-inhibitory concentration (IC50) in [1] is 68 nM; in data set [2] it was 6000 nM; at Chitotriosidase-1 it was above 20000 nM.
For `Nc1nc(N2CCC(N(CCc3ccc(Cl)cc3)Cc3ccccc3O)CC2)n[nH]1`, in that order: 2 nM, 100 nM and 49 nM.
Regarding `Nc1nc(N2CCC(N(CCc3ccc(Cl)cc3)Cc3cccc(Cl)c3)CC2)n[nH]1`, the IC50 in data set [1] came out at 6 nM; in data set [2] it was 3700 nM; on Chitotriosidase-1, 176 nM. The AUC(0-inf) in data set [3] turned out to be 7800 ng·h/mL. The peak level in data set [4] (Cmax) was 780 ng/mL.
For `CN(C1CCN(c2n[nH]c(N)n2)CC1)[C@H](COc1ccc(Cl)cc1)Cc1ccc(Cl)cc1`, the values for the concentration for half-maximal inhibition (IC50) (in data set [1]; at Chitotriosidase-1) were 580 nM and 16000 nM, respectively.
In the case of `Nc1nnc(N2CCC(N3Cc4cc(F)ccc4OC[C@@H]3Cc3ccc(Cl)cc3)CC2)[nH]1`, the IC50 in [1] turned out to be 7 nM; on Chitotriosidase-1, 930 nM.
As to `Nc1nnc(N2CCC(N3Cc4ccccc4OC[C@@H]3Cc3ccc(Cl)cc3)CC2)[nH]1`, the values for the Cmax in data set [5], in data set [4] and in data set [18] were 3100 ng/mL, 3400 ng/mL and 9500 ng/mL, respectively. Further, the IC50 was determined as 23000 nM in data set [6], 7 nM in data set [1], 22000 nM in data set [2] and 915 nM at Chitotriosidase-1. Besides, the results for the MRT in data set [7], in data set [12] and in data set [13] were 50.4 min, 20.4 min and 252 min, respectively. Further, the Tmax in data set [8] and in data set [16] was 30 min each time. Also, the Vd in data set [9] was found to be 0.35 L/kg. The half-life is 66 min in data set [10], 84 min in data set [20] and 252 min in data set [21]. Moreover, the clearance in [11] is 16.7 mL/min/kg. Also, the area under the curve AUC(0-inf) in data set [14] was determined as 3900 ng·h/mL; in data set [15], 2900 ng·h/mL; in data set [19] it was 22500 ng·h/mL. Moreover, the bioavailability in [17] stood at 41%.
For the molecule `CC(C)CN(CCc1ccc(Cl)cc1)C1CCN(c2nc(N)n[nH]2)CC1`, the AUC(0-inf) in data set [3] stood at 90 ng·h/mL. In addition, the IC50 at Chitotriosidase-1 is 229 nM.
On to `Nc1nc(N2CCC(N(CCc3ccc(Cl)cc3)Cc3ccc(Cl)cc3)CC2)n[nH]1`, for which the IC50 in data set [1] turned out to be 4 nM; in [2], 400 nM; at Chitotriosidase-1, 90 nM. For the same molecule, the AUC(0-inf) in data set [3] was found to be 7000 ng·h/mL.
Consider `Nc1nc(N2CCC(N(Cc3ccccc3)[C@H](CO)Cc3ccc(Cl)cc3)CC2)n[nH]1`, for which the IC50 in data set [1] is 245 nM; in data set [2], 2900 nM; on Chitotriosidase-1, 18000 nM.
For `Nc1nnc(N2CCC(N3Cc4ccncc4OC[C@@H]3Cc3ccc(Cl)cc3)CC2)[nH]1`, the IC50 in data set [1] was determined as 55 nM; in data set [2], 50000 nM; at Chitotriosidase-1, 4400 nM.

By IC50 is commonly meant the midpoint of a concentration-inhibition curve. In general, AUC(0-inf) refers to the area under the concentration-time curve extrapolated to infinity. Low values mean less exposure, high ones more exposure. The term Cmax denotes the maximum level reached in the sampled fluid or tissue. Usually MRT stands for a mean duration of stay, worked out from the concentration-time curve. The Tmax is the time from dosing to the highest level. Broadly, the half-life is the time in which the quantity being followed falls by half. High values mean slow loss, low ones fast loss. By clearance is commonly meant the volume of plasma or blood freed of the substance per unit of time. Read a high clearance as a high capacity for elimination. Broadly, the bioavailability is dose-corrected exposure relative to a reference, in per cent.
